# From ChEMBL document CHEMBL5365403, “Synthesis of proposed structure of ledebourin A” (Bioorg Med Chem Lett, 2023)
# Active and inactive are the calls of the source. No cut-off for these calls is given here.
# Assays:
# HepG2 [1] = assay: Hepatoprotective activity against GA-induced human HepG2 cells assessed as reduction in Bax protein expression at 5 to 10 uM; type: functional, cell-based; settings: dose 5-10 µM
# HepG2 [2] = assay: Hepatoprotective activity against GA-induced human HepG2 cells assessed as cell viability at 10 uM pre-incubated for 2 hrs followed by GA addition and measured after 22 hrs by MTT assay (Rvb=37% ); type: functional; settings: time 24 hrs, read-out: Activity
# HepG2 [3] = assay: Cytotoxicity against human HepG2 cells assessed as reduction cell viability at 10 uM after 24 hrs by MTT assay; type: toxicity, cell-based; settings: hepg2, 24 h
Compound,Activity (HepG2 [1]),viability at 10 µM (HepG2 [2]) [%],Activity (HepG2 [3])
COc1ccc(C[C@H]2COc3cc4c(c(O)c3C2=O)C=CC(C)(C)O4)cc1,Active,47,Non-Toxic
COc1ccc(C[C@H]2COc3c4c(cc(O)c3C2=O)OC(C)(C)C=C4)cc1,Active,51,Non-Toxic
